In paper PMC6325200, “Effects of Microplate Type and Broth Additives on Microdilution MIC Susceptibility Assays” (Antimicrobial Agents and Chemotherapy, 2018):
≈ marks a conversion by molar mass, not a printed value. Where “and” joins values, the source holds several entries; their conditions need not be identical. Equal entries are not always repeated. Where two headings read alike, the source gives them in different places. Where a SMILES comes first, the peptide text is derived from it. Bridges are numbered along the chain shown (N, C = ends). [ ]: non-standard residue; d: D form. The star is where a group is joined. X1 = CC[C@H](C)CCCCC(=O)*; Dab = NCC[C@H](N)C(=O)O

Experiments:
[1] = literature values, reference given; cited from earlier work
Text: Other assay additives can affect MIC values. […] Plasma protein binding has been implicated as a major factor limiting the active free concentration of many clinically important antibiotics ([37][–][42]).

over 200 strains = details: 0.002% polysorbate added; cited from earlier work
Text: (§1) Members of the lipopeptide polymyxin class of antibiotics (polymyxin B [compound 7a] and polymyxin E [or colistin, compound 7b]) are important last-line therapeutic agents against many multidrug-resistant Gram-negative bacteria ([27][–][31]). They consist of an N-terminal fatty acid side chain that is attached to a polycationic deca-peptide backbone (Fig. 1) with physicochemical properties similar to those of the lipoglycopeptides. These structural features confer amphipathicity, which is a key feature of many other cationic antimicrobial peptides (CAMPs) ([32][–][34]). As mentioned earlier, p ...

[2] = 8 µg/ml, 24 h, cited from earlier work; for % of expected concentration detected: MHB
Text: as §1

E. coli ATCC 25922 = experiment: microbe, parasite or virus in culture
Description: (§2) A positive control of a row of just the bacteria and a negative control of only the medium were included for every plate tested.
(§3) The compounds along with standard antibiotics were serially diluted 2-fold across the 96-well plates. […] A sample of each culture was then diluted 40-fold in fresh MH broth (in presence and absence of Tween) and incubated at 37°C for 2 to 3 h.
For experiments in the presence of surfactant, 2% beractant (25 mg/ml) was added to the mid-log-phase cultures and mixed gently and added to all the 96-well plates. For experiments in the presence of serum, a mixture of 50% of human serum along with 50% MHB was prepared and used throughout the experiment.

P. aeruginosa ATCC 10145 = experiment: microbe, parasite or virus in culture; details: n = 2
Description: as §2, §3

K. pneumoniae ATCC 13883 = experiment: microbe, parasite or virus in culture; details: n = 2
Description: as §2, §3

A. baumannii ATCC 19606 = experiment: microbe, parasite or virus in culture; details: n = 2
Description: as §2, §3

E. coli = details: literature value; cited from earlier work

In the case of `CC[C@H](C)CCCCC(=O)N[C@@H](CCN)C(=O)N[C@H](C(=O)N[C@@H](CCN)C(=O)N[C@H]1CCNC(=O)[C@H]([C@@H](C)O)NC(=O)[C@H](CCN)NC(=O)[C@H](CCN)NC(=O)[C@H](CC(C)C)NC(=O)[C@@H](CC(C)C)NC(=O)[C@H](CCN)NC1=O)[C@@H](C)O` [Colistin, colistin] (X1-[Dab]T[Dab][Dab][Dab][dL]L[Dab][Dab]T; lactam 4-C (inferred); N-terminus assumed), the protein binding [1] is listed as 50 to 60% and 60%, the “more potent MICs with surfactant present” value (over 200 strains) is listed as 4- to 8 fold and the “% of concentration remaining” value ([2]; Greiner untreated PS microwell plates) is listed as 2%. The “% of expected concentration detected” value ([2]; PP tubes) was 90%, the “% of expected concentration detected” value ([2]; PS tubes) was 84% and the “% of expected concentration detected” value ([2]; glass tubes) was 80%. For the same compound, the “% of concentration remaining” value ([2]; Nunc untreated PS microwell plates) was 70%, the MIC (E. coli ATCC 25922; Corning NBS, MH + 2% LHB, 2% LS, n = 2) was 0.03 to 0.06 µg/mL and the MIC (E. coli ATCC 25922; Corning NBS, MH + 2% LHB, 50% HS, n = 2) was no more than 0.03 µg/mL. For the same compound, the MIC (E. coli ATCC 25922; Corning NBS, MH + 2% LHB, no additive, n = 2) was no more than 0.03 µg/mL, the MIC (E. coli ATCC 25922; Corning NBS, MH + T80, 2% LS, n = 2) was 0.03 to 0.06 µg/mL and the MIC (E. coli ATCC 25922; Corning NBS, MH + T80, 50% HS, n = 2) was no more than 0.03 µg/mL. It also gave an MIC (E. coli ATCC 25922; Corning NBS, MH, 2% LS, n = 2) of no more than 0.03 µg/mL, an MIC (E. coli ATCC 25922; Corning NBS, MH, 50% HS, n = 2) of no more than 0.03 µg/mL and an MIC (E. coli ATCC 25922; Corning PS plate, MHB −T80, no additive, n = 2) of 0.06 µg/mL (≈ 0.0513 µM). The MIC (E. coli ATCC 25922; Corning PS, MH + 2% LHB, 2% LS, n = 2) was 0.06 to 0.125 µg/mL, the MIC (E. coli ATCC 25922; Corning PS, MH + 2% LHB, 50% HS, n = 2) was no more than 0.03 µg/mL and the MIC (E. coli ATCC 25922; Corning PS, MH + 2% LHB, no additive, n = 2) was 1 µg/mL. The MIC (E. coli ATCC 25922; Corning PS, MH + T80, 2% LS, n = 2) was 0.03 to 0.06 µg/mL, the MIC (E. coli ATCC 25922; Corning PS, MH + T80, 50% HS, n = 2) was no more than 0.03 µg/mL and the MIC (E. coli ATCC 25922; Corning PS, MH, 2% LS, n = 2) was 0.06 to 0.25 µg/mL. For the same compound, the MIC (E. coli ATCC 25922; Corning PS, MH, 50% HS, n = 2) was no more than 0.03 µg/mL, the MIC (E. coli ATCC 25922; Corning TC plate, MHB +0.002% T80, no further additive, n = 2) was 1 µg/mL (≈ 0.855 µM) and the MIC (E. coli ATCC 25922; Corning TC plate, MHB −T80, no additive, n = 2) was 0.5 to 1 µg/mL. It also gave an MIC (E. coli ATCC 25922; Corning TC, MH + 2% LHB, 2% LS, n = 2) of 2 to 4 µg/mL, an MIC (E. coli ATCC 25922; Corning TC, MH + 2% LHB, 50% HS, n = 2) of 0.25 to 0.5 µg/mL and an MIC (E. coli ATCC 25922; Corning TC, MH + 2% LHB, no additive, n = 2) of no more than 0.03 µg/mL. The MIC (E. coli ATCC 25922; Corning TC, MH + T80, 2% LS, n = 2) was 1 to 2 µg/mL, the MIC (E. coli ATCC 25922; Corning TC, MH + T80, 50% HS, n = 2) was 0.25 to 0.5 µg/mL and the MIC (E. coli ATCC 25922; Corning TC, MH, 2% LS, n = 2) was 0.5 to 1 µg/mL. For the same compound, the MIC (E. coli ATCC 25922; Corning TC, MH, 50% HS, n = 2) was 0.125 to 0.5 µg/mL, the “MIC” value (E. coli ATCC 25922; NBS plates) was no more than 0.03 µg/mL and the MIC (E. coli ATCC 25922; Nunc PS plate, MHB +0.002% T80, n = 2) was no more than 0.03 µg/mL. For the same compound, the MIC (E. coli ATCC 25922; Nunc PS plate, MHB −T80, n = 2) was 0.125 to 1 µg/mL, the MIC (E. coli ATCC 25922; Nunc U TC plate, MHB +0.002% T80, n = 2) was 2 µg/mL (≈ 1.71 µM) and the MIC (E. coli ATCC 25922; Nunc U TC plate, MHB −T80, n = 2) was 0.5 to 1 µg/mL. For the same compound, the MIC (E. coli ATCC 25922; Nunc flat TC plate, MHB +0.002% T80, n = 2) was 1 to 2 µg/mL, the MIC (E. coli ATCC 25922; Nunc flat TC plate, MHB −T80, n = 2) was 1 to 2 µg/mL and the “MIC” value (E. coli ATCC 25922; PS plates) was no more than 0.03 to 1 µg/mL. The “MIC” value (E. coli ATCC 25922; PS plates with T80) was no more than 0.03 to 0.25 µg/mL, the “MIC” value (E. coli ATCC 25922; TC plates) was 0.5 to 4 µg/mL and the MIC (E. coli ATCC 25922; Trek PS plate, MHB +0.002% T80, no further additive, n = 2) was no more than 0.03 µg/mL. It also gave an MIC (E. coli ATCC 25922; Trek PS plate, MHB −T80, no additive, n = 2) of no more than 0.03 µg/mL, an MIC (E. coli ATCC 25922; Trek PS, MH + 2% LHB, 2% LS, n = 2) of no more than 0.03 µg/mL and an MIC (E. coli ATCC 25922; Trek PS, MH + 2% LHB, 50% HS, n = 2) of 0.03 to 0.06 µg/mL. The MIC (E. coli ATCC 25922; Trek PS, MH + 2% LHB, no additive, n = 2) was 0.03 to 0.06 µg/mL, the MIC (E. coli ATCC 25922; Trek PS, MH + T80, 2% LS, n = 2) was no more than 0.03 µg/mL and the MIC (E. coli ATCC 25922; Trek PS, MH + T80, 50% HS, n = 2) was no more than 0.03 µg/mL. It also gave an MIC (E. coli ATCC 25922; Trek PS, MH, 2% LS, n = 2) of no more than 0.03 µg/mL, an MIC (E. coli ATCC 25922; Trek PS, MH, 50% HS, n = 2) of no more than 0.03 µg/mL and an MIC (P. aeruginosa ATCC 10145; Corning NBS, MHB +T80) of 0.125 µg/mL (≈ 0.107 µM). For the same compound, the MIC (P. aeruginosa ATCC 10145; Corning NBS, MHB -T80) was 0.06 µg/mL (≈ 0.0513 µM), the MIC (P. aeruginosa ATCC 10145; Corning PS, MHB +T80) was 0.25 to 0.5 µg/mL and the MIC (P. aeruginosa ATCC 10145; Corning PS, MHB -T80) was 0.25 to 0.5 µg/mL. For the same compound, the MIC (P. aeruginosa ATCC 10145; Corning TC, MHB +T80) was 1 to 2 µg/mL, the MIC (P. aeruginosa ATCC 10145; Corning TC, MHB -T80) was 0.5 to 2 µg/mL and the MIC (K. pneumoniae ATCC 13883; Corning NBS, MHB +T80) was no more than 0.03 µg/mL. It also gave an MIC (K. pneumoniae ATCC 13883; Corning NBS, MHB -T80) of no more than 0.03 µg/mL, an MIC (K. pneumoniae ATCC 13883; Corning PS, MHB +T80) of no more than 0.03 µg/mL and an MIC (K. pneumoniae ATCC 13883; Corning PS, MHB -T80) of 0.125 to 0.25 µg/mL. The MIC (K. pneumoniae ATCC 13883; Corning TC, MHB +T80) was 0.25 to 0.5 µg/mL, the MIC (K. pneumoniae ATCC 13883; Corning TC, MHB -T80) was 2 µg/mL (≈ 1.71 µM) and the MIC (A. baumannii ATCC 19606; Corning NBS, MHB +T80) was no more than 0.03 µg/mL. The MIC (A. baumannii ATCC 19606; Corning NBS, MHB -T80) was no more than 0.03 µg/mL, the MIC (A. baumannii ATCC 19606; Corning PS, MHB +T80) was 0.06 µg/mL (≈ 0.0513 µM) and the MIC (A. baumannii ATCC 19606; Corning PS, MHB -T80) was 0.06 to 0.125 µg/mL. For the same compound, the MIC (A. baumannii ATCC 19606; Corning TC, MHB +T80) was 1 to 2 µg/mL, the MIC (A. baumannii ATCC 19606; Corning TC, MHB -T80) was 0.5 to 1 µg/mL and the “MIC (literature)” value (E. coli) was 0.5–2 ([70]) µg/ml.
